These results are taken from patent US4879237A, “Use of peptides in control of cell attachment and detachment” (La Jolla Cancer Research Foundation, priority 1985, dated 1989).

The test system of this series is NRK cells. The series can be described thus: Toxicity by trypan blue exclusion and replating of detached cells. The series is classed as cell-based, rat. How it is done: The activities of the crude and high performance liquid chromatrography (HPLC)-purified GRGDSP peptide were similar. […] To study the correlation of detaching capacity with the cell attachment-promoting and attachment-inhibiting effects established previously (Pierschbacher and Ruoslahti, 1984a; 1984b), each of the following listed peptides was tested for its ability to detach cells: […]

Consider `N=C(N)NCCC[C@H](NC(=O)CN)C(=O)NCC(=O)N[C@@H](CC(=O)O)C(=O)N[C@@H](CO)C(=O)N1CCC[C@H]1C(=O)O` [GRGDSP, GLY-ARG-GLY-ASP-SER-PRO], for which the “replating of aggregates washed free of the peptide” value (NRK aggregates) is “attached to the dish”. Moreover, the “cell death by trypan blue exclusion” value (detached NRK cells) was “no cell death could be detected”.
